Experimental data as given in patent US10507193B2, “Ultra low dose doxepin and methods of using the same to treat sleep disorders” (Pernix Sleep, Inc., priority 2006, dated 2019).

Key:
Type in all cases: in vivo, human
[1] = tested on: patient suffering from a sleep disorder; test: Patient with a sleep disorder prescribed ultra low dose doxepin, salt or prodrug prior to bedtime; settings: daily dosage 0.1 milligram prior to bedtime
Source text: A patient suffers from a sleep disorder. The patient is prescribed doxepin in a daily dosage of 0.1 milligram prior to bedtime. […] A patient suffers from a sleep disorder. The patient is prescribed a pharmaceutically acceptable salt of doxepin in a daily dosage of 0.3 milligrams prior to bedtime. […] A patient suffers from a sleep disorder. The patient is prescribed a pharmaceutically acceptable salt of doxepin in a daily dosage of 0.009 milligrams prior to bedtime. […] A patient suffers from a sleep disorder. The patient is prescribed a pharmaceutically acceptable salt of doxepin in a daily dosage of 0.006 milligrams prior to bedtime. […] A patient suffers from a sleep disorder. The patient is prescribed a pharmaceutically acceptable salt of doxepin in a daily dosage of 0.0007 milligrams prior to bedtime. […] A patient suffers from a sleep disorder. The patient is prescribed a prodrug of doxepin in a daily dosage of 0.1 milligrams prior to bedtime. […] A patient suffers from a sleep disorder. The patient is prescribed a prodrug of doxepin in a daily dosage of 0.0006 milligrams prior to bedtime. […] A patient suffers from a sleep disorder. The patient is prescribed a prodrug of doxepin in a daily dosage of 0.05 milligrams prior to bedtime. […] A patient suffers from a sleep disorder. The patient is prescribed a prodrug of doxepin in a daily dosage of 0.004 milligrams prior to bedtime. […]

[2] = tested on: patient suffering from transient or short term insomnia; test: Patient with transient or short term insomnia prescribed ultra low dose doxepin prior to bedtime
Source text: A patient suffers from transient or short term insomnia. The patient is otherwise healthy with normal affect with no depression, anxiety or substance overuse. The patient is prescribed doxepin in a daily dosage of 0.4 milligrams, prior to bedtime. […] A patient suffers from transient or short term insomnia. The patient is otherwise healthy with normal affect with no depression, anxiety or substance overuse. The patient is prescribed doxepin in a daily dosage of 0.08 milligrams, prior to bedtime. […] A patient suffers from transient or short term insomnia. The patient is otherwise healthy with normal affect with no depression, anxiety or substance overuse. The patient is prescribed doxepin in a daily dosage of 0.009 milligrams, prior to bedtime. […] A patient suffers from transient or short term insomnia. The patient is otherwise healthy with normal affect with no depression, anxiety or substance overuse. The patient is prescribed doxepin in a daily dosage of 0.0005 milligrams prior to bedtime. […] A patient suffers from transient or short term insomnia. The patient also suffers from depression. The patient is prescribed doxepin in a daily dosage of 0.3 milligrams, prior to bedtime. […] A patient suffers from transient or short term insomnia. The patient also suffers from depression. The patient is prescribed doxepin in a daily dosage of 0.1 milligrams, prior to bedtime. […] A patient suffers from transient or short term insomnia. The patient also suffers from depression. The patient is prescribed doxepin in a daily dosage of 0.006 milligrams, prior to bedtime. […] A patient suffers from transient or short term insomnia. The patient is otherwise healthy with normal affect with no depression, anxiety or substance overuse. The patient is prescribed doxepin in a daily dosage of 0.008 milligrams, prior to bedtime. […] A patient suffers from transient or short term insomnia. The patient also suffers from depression. The patient is prescribed doxepin in a daily dosage of 0.001 milligrams, prior to bedtime. […] A patient suffers from transient or short term insomnia. The patient also suffers from depression. The patient is prescribed doxepin in a daily dosage of 0.0003 milligrams prior to bedtime.

[3] = tested on: patient suffering from chronic insomnia; test: Patient with chronic insomnia prescribed ultra low dose doxepin prior to bedtime
Source text: A patient suffers from chronic insomnia. The patient is otherwise healthy with normal affect with no depression, anxiety or substance overuse. The patient is prescribed doxepin in a daily dosage of 0.4 milligrams prior to bedtime. […] A patient suffers from chronic insomnia. The patient is otherwise healthy with normal affect with no depression, anxiety or substance overuse. The patient is prescribed doxepin in a daily dosage of 0.2 milligrams prior to bedtime. […] A patient suffers from chronic insomnia. The patient is otherwise healthy with normal affect with no depression, anxiety or substance overuse. The patient is prescribed doxepin in a daily dosage of 0.02 milligrams prior to bedtime. […] A patient suffers from chronic insomnia. The patient is otherwise healthy with normal affect with no depression, anxiety or substance overuse. The patient is prescribed doxepin in a daily dosage of 0.007 milligrams prior to bedtime. […] A patient suffers from chronic insomnia. The patient is otherwise healthy with normal affect with no depression, anxiety or substance overuse. The patient is prescribed doxepin in a daily dosage of 0.009 milligrams prior to bedtime. […] A patient suffers from chronic insomnia. The patient is otherwise healthy with normal affect with no depression, anxiety or substance overuse. The patient is prescribed doxepin in a daily dosage of 0.0002 milligrams prior to bedtime. […] A patient suffers from chronic insomnia. The patient also suffers from depression. The patient is prescribed doxepin in a daily dosage of 0.5 milligram prior to bedtime. […] A patient suffers from chronic insomnia. The patient also suffers from depression. The patient is prescribed doxepin in a daily dosage of 0.03 milligrams prior to bedtime. […] A patient suffers from chronic insomnia. The patient also suffers from depression. The patient is prescribed doxepin in a daily dosage of 0.05 milligrams prior to bedtime. […] A patient suffers from chronic insomnia. The patient also suffers from depression. The patient is prescribed doxepin in a daily dosage of 0.004 milligrams prior to bedtime. […] A patient suffers from chronic insomnia. The patient also suffers from depression. The patient is prescribed doxepin in a daily dosage of 0.0001 milligrams prior to bedtime. […] A patient suffers from chronic insomnia. The patient also suffers from depression. The patient is prescribed doxepin in a daily dosage of 0.0009 milligrams prior to bedtime.

[4] = otherwise healthy, no depression, daily dosage 0.009 milligrams prior to bedtime
[5] = otherwise healthy, no depression, daily dosage 0.4 milligrams prior to bedtime

Measured: relief of insomnia

CN(C)CCC=C1c2ccccc2COc2ccccc21 [doxepin, 11-(3-dimethylaminopropylidene)-6,11-dihydrodibenzo-[b,e]-oxepine]
relieves the insomnia: [1] | [2]; otherwise healthy, no depression, daily dosage 0.0005 milligrams prior to bedtime | [2]; otherwise healthy, no depression, daily dosage 0.008 milligrams prior to bedtime | [2]; [4] | [2]; otherwise healthy, no depression, daily dosage 0.08 milligrams prior to bedtime | [2]; [5] | [2]; patient also suffers from depression, daily dosage 0.0003 milligrams prior to bedtime | [2]; patient also suffers from depression, daily dosage 0.001 milligrams prior to bedtime | [2]; patient also suffers from depression, daily dosage 0.006 milligrams prior to bedtime | [2]; patient also suffers from depression, daily dosage 0.1 milligrams prior to bedtime | [2]; patient also suffers from depression, daily dosage 0.3 milligrams prior to bedtime | [3]; otherwise healthy, no depression, daily dosage 0.0002 milligrams prior to bedtime | [3]; otherwise healthy, no depression, daily dosage 0.007 milligrams prior to bedtime | [3]; [4] | [3]; otherwise healthy, no depression, daily dosage 0.02 milligrams prior to bedtime | [3]; otherwise healthy, no depression, daily dosage 0.2 milligrams prior to bedtime | [3]; [5] | [3]; patient also suffers from depression, daily dosage 0.0001 milligrams prior to bedtime | [3]; patient also suffers from depression, daily dosage 0.0009 milligrams prior to bedtime | [3]; patient also suffers from depression, daily dosage 0.004 milligrams prior to bedtime | [3]; patient also suffers from depression, daily dosage 0.03 milligrams prior to bedtime | [3]; patient also suffers from depression, daily dosage 0.05 milligrams prior to bedtime | [3]; patient also suffers from depression, daily dosage 0.5 milligram prior to bedtime
